What was measured:
[1] = test system: Human colon cancer HCT-116 cell lines; assay: Antitumor effect on tumor cells transplanted into mice 1; assay type: in vivo
Method: Human colon cancer HCT-116 cell lines were washed in PBS and suspended at a concentration of 4×10^7 cells/mL. 0.1 mL of this cell suspension was subcutaneously implanted in the right chest of 6-week-old BALB/cAJcl-nu/nu mice (produced by CLEA Japan, Inc.).
(§1) The length and the width of the implanted tumor and the body weight were measured. The tumor volume (TV) was calculated using the following equation (equation D). TV(mm3)=(length×width^2)/2, wherein the unit of length and width is mm (equation D).
When the TV reached 100 to 300 mm3, the animals were assigned to each group in accordance with a stratified randomization procedure. The day was considered day 1, the TV on the day was considered TV1, and the body weight on the day was considered BW1.
A required amount of the test compound was weighed to prepare an administration solution.
(§2) Thereafter, the length and the width of the tumor and the body weight (BWn) on day n were measured over time in the same manner, and the TVn of each mouse was calculated. Further, the relative tumor volume (RTVn) was calculated based on the TVn of each mouse using the following equation (equation E); the treatment/control (T/C) value (%) was calculated based on the mean RTVn of each drug administration group using the following equation (equation F); and the weight change rate (BWCn) was calculated using the following equation (equation G). RTVn=TVn/TV1 (equation E) T/Cn(%)=(mean RTV of each drug administration group on the last day of the test)/(mean RTV of the control group on the last day of the test)×100 (equation F) BWCn (%)=(BWn−BW1)/BW1×100 (equation G) FIGS. 1 and 2, and Table 21 below show the results.

[2] = molecular target: NAE (heterodimer of APPBP1 and UBA3) (Homo sapiens (Human), UniProt Q8TBC4); assay: Nedd8 conjugation inhibitory activity (AlphaScreen assay); assay type: biochemical; conditions: purified NAE, GST-UBC12, Biotin-Nedd8, ATP
Chain of NAE (heterodimer of APPBP1 and UBA3) (Q8TBC4 whole entry): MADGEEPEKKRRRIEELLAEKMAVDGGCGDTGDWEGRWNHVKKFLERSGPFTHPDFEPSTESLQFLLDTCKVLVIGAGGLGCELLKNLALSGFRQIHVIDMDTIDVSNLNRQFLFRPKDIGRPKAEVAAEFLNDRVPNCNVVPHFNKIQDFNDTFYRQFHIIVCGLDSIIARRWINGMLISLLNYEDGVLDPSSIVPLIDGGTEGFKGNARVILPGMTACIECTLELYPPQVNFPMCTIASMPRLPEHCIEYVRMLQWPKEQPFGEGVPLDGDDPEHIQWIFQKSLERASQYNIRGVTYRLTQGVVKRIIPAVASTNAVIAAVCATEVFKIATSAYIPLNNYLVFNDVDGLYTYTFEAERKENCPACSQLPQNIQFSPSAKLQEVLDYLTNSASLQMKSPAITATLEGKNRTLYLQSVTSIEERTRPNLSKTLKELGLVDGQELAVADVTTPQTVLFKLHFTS
Chain of NAE (heterodimer of APPBP1 and UBA3) (Q13564 whole entry partner): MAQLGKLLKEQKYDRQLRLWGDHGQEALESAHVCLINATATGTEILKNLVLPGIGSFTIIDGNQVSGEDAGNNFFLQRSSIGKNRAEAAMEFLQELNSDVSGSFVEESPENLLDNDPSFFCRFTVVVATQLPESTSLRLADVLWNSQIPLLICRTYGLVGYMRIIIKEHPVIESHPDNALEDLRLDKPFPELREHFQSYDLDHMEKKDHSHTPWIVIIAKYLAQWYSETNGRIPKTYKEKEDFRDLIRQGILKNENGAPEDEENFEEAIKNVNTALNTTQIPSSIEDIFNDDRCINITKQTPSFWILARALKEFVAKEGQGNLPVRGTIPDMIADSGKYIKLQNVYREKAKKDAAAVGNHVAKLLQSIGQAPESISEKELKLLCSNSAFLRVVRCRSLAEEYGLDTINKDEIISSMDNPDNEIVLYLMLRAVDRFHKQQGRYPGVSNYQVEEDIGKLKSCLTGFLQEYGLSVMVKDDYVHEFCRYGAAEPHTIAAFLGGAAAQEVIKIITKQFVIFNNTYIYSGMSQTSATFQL

[3] = molecular target: carbonic anhydrase II (Homo sapiens (Human), UniProt P00918); assay: Carbonic anhydrase II enzyme activity inhibition (4-NPA esterase activity); assay type: biochemical; conditions: 4-nitrophenyl acetate esterase activity, absorbance at 405 nm
[4] = test system: human acute lymphoblastic leukemia (ALL) CCRF-CEM cell lines; assay: Antitumor effect on tumor cells transplanted into mice 3; assay type: in vivo; conditions: for T/C15 / RTV comparison with the Comparative Example / RTV comparison with the control on day 15 / BWC15 Mean ± SD: CCRF-CEM xenograft in nude mice; for T/C15 / BWC15 Mean ± SD: 50 mg/kg/day intravenous; for T/C15: administration days 1, 8, day 15; for RTV comparison with the Comparative Example / RTV comparison with the control on day 15: compound hydrochlorides intravenously, Dunnett's test; for BWC15 Mean ± SD: body weight change rate, days 1, 8, day 15; for change of the body weight compared with the control: CCRF-CEM xenograft mice
Method: as §1, §2
The tumor growth inhibitory effects on human tumors were evaluated as in Test Example 5, except that the compound hydrochloride obtained in Example 122, the compound hydrochloride (Example 64), and human acute lymphoblastic leukemia (ALL) CCRF-CEM cell lines were used, and the animals were assigned to each group in accordance with a stratified randomization procedure when the TV reached 140 to 380 mm3.
At this time, the cell lines were washed in PBS, and suspended in 50% PBS and 50% Matrigel basement membrane matrix (#356237; produced by BD Biosciences) at a concentration of 1×10^8 cells/mL. 0.1 mL of this cell suspension was subcutaneously implanted to the right chest of 6-week-old BALB/cAJcl-nu/nu mice (nude mice) (produced by CLEA Japan, Inc.). The compound hydrochloride (Example 122) was intravenously administered in an amount of 5 mL per 1 kg of body weight on days 1 and 8, and the compound hydrochloride (Example 133) was intravenously administered in an amount of 5 mL per 1 kg of body weight on days 1 and 8.

**Q.** Which results are given for `Nc1ncnc2c1c(C#Cc1c(F)cccc1F)cn2[C@@H]1O[C@H](CNS(N)(=O)=O)[C@@H](O)[C@H]1O` [Example 1, 4-Amino-5-[2-(2,6-difluorophenyl)ethynyl]-7-[(2R,3R,4S,5R)-3,4-dihydroxy-5-[(sulfamoylamino)methyl]tetrahydrofuran-2-yl]pyrrolo[2,3-d]pyrimidine]?
**A.** T/C15 (%) ([1]; HCT-116 s.c. in BALB/cAJcl-nu/nu mice, 50 mg/kg/day intravenously on days 1, 4, 8, 11, day 15): 23%; change of the body weight compared with the control ([1]; HCT-116 xenograft mice): within an acceptable degree; RTV comparison with the Comparative Example ([1]; HCT-116 xenograft, Aspin-Welch's t-test): significantly lower than that of the Comparative Example; RTV15 comparison with the control ([1]; HCT-116 xenograft, Dunnett's test): significantly lower than that of the control; BWC15 (%) Mean ± SD ([1]; body weight change, 50 mg/kg/day intravenously on days 1, 4, 8, 11, day 15): −11.8 ± 4.7%

**Q.** What does the source list for `CNc1cc(F)c(C#Cc2cn([C@@H]3O[C@H](CNS(N)(=O)=O)[C@@H](O)[C@H]3O)c3ncnc(N)c23)c(F)c1` [Example 25, 4-Amino-5-[2-[2,6-difluoro-4-(methylamino)phenyl]ethynyl]-7-[(2R,3R,4S,5R)-3,4-dihydroxy-5-[(sulfamoylamino)methyl]tetrahydrofuran-2-yl]pyrrolo[2,3-d]pyrimidine]?
**A.** IC50 [2]: 0.0048 µM; IC50 [3]: > 1 µM

**Q.** With `Nc1ncnc2c1c(C#Cc1c(F)cc(N3CC[C@@H](F)C3)cc1F)cn2[C@@H]1O[C@H](CNS(N)(=O)=O)[C@@H](O)[C@H]1O` [Example 29, 4-Amino-5-[2-[2,6-difluoro-4-[(3R)-3-fluoropyrrolidin-1-yl]phenyl]ethynyl]-7-[(2R,3R,4S,5R)-3,4-dihydroxy-5-[(sulfamoylamino)methyl]tetrahydrofuran-2-yl]pyrrolo[2,3-d]pyrimidine] as the compound, how does the IC50 [2] read?
**A.** 0.0071 µM

**Q.** What about the IC50 [3] of the same compound?
**A.** > 1 µM

**Q.** `Nc1ncnc2c1c(C#Cc1c(F)cc(N3CCC3)cc1F)cn2[C@@H]1O[C@H](CNS(N)(=O)=O)[C@@H](O)[C@H]1O` [Example 43, 4-amino-5-[2-[4-(azetidin-1-yl)-2,6-difluoro-phenyl]ethynyl]-7-[(2R,3R,4S,5R)-3,4-dihydroxy-5-[(sulfamoylamino)methyl]tetrahydrofuran-2-yl]pyrrolo[2,3-d]pyrimidine] was tested. Which IC50 [2] did it give?
**A.** 0.0076 µM

**Q.** What about the IC50 [3] of the same compound?
**A.** > 1 µM

**Q.** `Nc1ncnc2c1c(C#Cc1ccccc1F)cn2[C@@H]1O[C@H](CNS(N)(=O)=O)[C@@H](O)[C@H]1O` [Example 46, 4-Amino-7-[(2R,3R,4S,5R)-3,4-dihydroxy-5-[(sulfamoylamino)methyl]tetrahydrofuran-2-yl]-5-[2-(2-fluorophenyl)ethynyl]pyrrolo[2,3-d]pyrimidine] was tested. Which IC50 [2] did it give?
**A.** 0.013 µM

**Q.** What about the IC50 [3] of the same compound?
**A.** > 1 µM

**Q.** What does the source list for `COc1ccccc1C#Cc1cn([C@@H]2O[C@H](CNS(N)(=O)=O)[C@@H](O)[C@H]2O)c2ncnc(N)c12` [Example 47, 4-Amino-7-[(2R,3R,4S,5R)-3,4-dihydroxy-5-[(sulfamoylamino)methyl]tetrahydrofuran-2-yl]-5-[2-(2-methoxyphenyl)ethynyl]pyrrolo[2,3-d]pyrimidine]?
**A.** IC50 [2]: 0.0093 µM; IC50 [3]: > 1 µM

**Q.** Which IC50 [2] does the source give for `Nc1ncnc2c1c(C#Cc1ccc(OCc3ccccc3)cn1)cn2[C@@H]1O[C@H](CNS(N)(=O)=O)[C@@H](O)[C@H]1O` [Example 52, 4-Amino-5-[2-(5-benzyloxy-2-pyridyl)ethynyl]-7-[(2R,3R,4S,5R)-3,4-dihydroxy-5-[(sulfamoylamino)methyl]tetrahydrofuran-2-yl]pyrrolo[2,3-d]pyrimidine] here?
**A.** 0.008 µM

**Q.** And the IC50 [3]?
**A.** > 1 µM

**Q.** What does the source list for `CCCOc1cccc(F)c1C#Cc1cn([C@@H]2O[C@H](CNS(N)(=O)=O)[C@@H](O)[C@H]2O)c2ncnc(N)c12` [Example 60, 4-Amino-7-[(2R,3R,4S,5R)-3,4-dihydroxy-5-[(sulfamoylamino)methyl]tetrahydrofuran-2-yl]-5-[2-(2-fluoro-6-propoxy-phenyl)ethynyl]pyrrolo[2,3-d]pyrimidine]?
**A.** IC50 [2]: 0.0085 µM; IC50 [3]: > 1 µM

**Q.** What does the source list for `CN1CCOc2c1ccc(F)c2C#Cc1cn([C@@H]2O[C@H](CNS(N)(=O)=O)[C@@H](O)[C@H]2O)c2ncnc(N)c12` [Example 64, 8-[2-[4-Amino-7-[(2R,3R,4S,5R)-3,4-dihydroxy-5-[(sulfamoylamino)methyl]tetrahydrofuran-2-yl]pyrrolo[2,3-d]pyrimidin-5-yl]ethynyl]-7-fluoro-4-methyl-2,3-dihydro-1,4-benzoxazine]?
**A.** T/C15 [4]: 8%; RTV comparison with the Comparative Example [4]: significantly lower than that of the Comparative Example; RTV comparison with the control on day 15 [4]: significantly lower than that of the control; BWC15 Mean ± SD [4]: 4.1 ± 1.6%; IC50 [2]: 0.0094 µM; IC50 [3]: > 1 µM

**Q.** `CCSc1cccc(F)c1C#Cc1cn([C@@H]2O[C@H](CNS(N)(=O)=O)[C@@H](O)[C@H]2O)c2ncnc(N)c12` [Example 66, 4-Amino-7-[(2R,3R,4S,5R)-3,4-dihydroxy-5-[(sulfamoylamino)methyl]tetrahydrofuran-2-yl]-5-[2-(2-ethylsulfanyl-6-fluoro-phenyl)ethynyl]pyrrolo[2,3-d]pyrimidine] was tested. Which IC50 [2] did it give?
**A.** 0.0071 µM

**Q.** And the IC50 [3]?
**A.** > 1 µM

**Q.** What does the source list for `Nc1ncnc2c1c(C#Cc1c(F)cc(N3CC[C@@H](O)C3)cc1F)cn2[C@@H]1C[C@H](CNS(N)(=O)=O)[C@@H](O)[C@H]1O` [Example 120, 4-Amino-5-[2-[2,6-difluoro-4-[(3R)-3-hydroxypyrrolidin-1-yl]phenyl]ethynyl]-7-[(1R,2S,3R,4R)-2,3-dihydroxy-4-[(sulfamoylamino)methyl]cyclopentyl]pyrrolo[2,3-d]pyrimidine]?
**A.** RTV comparison with the control on day 15 [4]: significantly lower than that of the control; change of the body weight compared with the control [4]: almost the same as that of the control; IC50 [2]: 0.0043 µM; IC50 [3]: > 1 µM

**Q.** How did the T/C15 [4] turn out when `CN1CCOc2c1ccc(F)c2C#Cc1cn([C@@H]2C[C@H](CNS(N)(=O)=O)[C@@H](O)[C@H]2O)c2ncnc(N)c12` [Example 122, 8-[2-[4-amino-7-[(1R,2S,3R,4R)-2,3-dihydroxy-4-[(sulfamoylamino)methyl]cyclopentyl]pyrrolo[2,3-d]pyrimidin-5-yl]ethynyl]-7-fluoro-4-methyl-2,3-dihydro-1,4-benzoxazine] was run?
**A.** 6%

**Q.** What about the “RTV comparison with the Comparative Example” value [4] of the same compound?
**A.** significantly lower than that of the Comparative Example

**Q.** What about the “RTV comparison with the control on day 15” value [4] of the same compound?
**A.** significantly lower than that of the control

**Q.** What about the “BWC15 Mean ± SD” value [4] of the same compound?
**A.** 6.0 ± 4.5%

**Q.** What about the IC50 [2] of the same compound?
**A.** 0.02 µM

**Q.** What about the IC50 [3] of the same compound?
**A.** > 1 µM

**Q.** Which results are given for `Nc1ncnc2c1c(C#Cc1cccc3ccccc13)cn2[C@@H]1O[C@H](COS(N)(=O)=O)[C@@H](O)[C@H]1O` [Example 133, [(2R,3S,4R,5R)-5-[4-Amino-5-[2-(1-naphthyl)ethynyl]pyrrolo[2,3-d]pyrimidin-7-yl]-3,4-dihydroxy-tetrahydrofuran-2-yl]methyl sulfamate]?
**A.** RTV comparison with the control on day 15 [4]: significantly lower than that of the control; change of the body weight compared with the control [4]: almost the same as that of the control; IC50 [2]: 0.025 µM

**Q.** What does the source list for `CCS(=O)(=O)c1cccc(F)c1C#Cc1cn([C@H]2C[C@H](O)[C@@H](CNS(N)(=O)=O)O2)c2ncnc(N)c12` [Example 143, 4-Amino-5-[2-(2-ethylsulfonyl-6-fluoro-phenyl)ethynyl]-7-[(2R,4S,5R)-4-hydroxy-5-[(sulfamoylamino)methyl]tetrahydrofuran-2-yl]pyrrolo[2,3-d]pyrimidine]?
**A.** IC50 [2]: 0.024 µM; IC50 [3]: > 1 µM
